Laboratory results from publication PMC5215716, “A Target-Based Whole Cell Screen Approach To Identify Potential Inhibitors of Mycobacterium tuberculosis Signal Peptidase” (ACS Infectious Diseases, 2016).
≈ marks a conversion by molar mass, not a printed value.

Each molecule was assayed on M. tuberculosis strain expressing LepB under the hsp60 promotor (LepB-OE) (assay: microbe, parasite or virus in culture). Conditions: Mycobacterium tuberculosis, average ± SD of at least two experiments.
Type: cell-based
`C/C(=N\Nc1nc(C)cc(C)n1)c1ccccn1` [Compound 1] showed an MIC of 18 ± 8 µM (≈ 4.34 µg/mL).
For `Oc1ccccc1/C=N/Nc1nc(-c2ccccc2)cs1` [Compound 2], the MIC was 160 ± 57 µM (≈ 47.3 µg/mL).
`C/C(=N\NC(=O)c1ccc(N2CCCC2=O)cc1)c1ccccn1` [Compound 11] showed an MIC of 5.6 ± 0.6 µM (≈ 1.81 µg/mL).
In the case of `Cc1cc(C)nc(NN=C(c2ccccc2)c2ccccc2)n1` [Compound 27], the MIC is reported as 103 ± 38 µM (≈ 31.1 µg/mL).
In the case of `C/C(=N\NC(=N)c1ccccn1)c1ccccn1` [Compound 30], the MIC is reported as > 200 µM.
In the case of `C/C(=N\NC(=O)C1CCCN(S(=O)(=O)c2ccccc2)C1)c1ccccn1` (centres unmarked) [Compound 38], the MIC is reported as 9.2 ± 4 µM (≈ 3.56 µg/mL).
Molecule `C/C(=N\NC(=O)c1ccoc1C)c1ccccn1` [Compound 39] has an MIC of 6.5 ± 2.2 µM (≈ 1.58 µg/mL).
Work on `C/C(=N\NC(=O)C1CC1)c1ccccn1` [Compound 40] yielded an MIC of 27 ± 2 µM (≈ 5.49 µg/mL).
